The source of these data is PMC2833169, “Anti-malarial activity of a non-piperidine library of next-generation quinoline methanols” (Malaria Journal, 2010).

In one data set the test system is P. falciparum strain D6. The data set is described as follows: labeled hypoxanthine susceptibility assay, P. falciparum D6. The data set is classed as cell-based, Plasmodium falciparum. To be noted: for IC90: Plasmodium falciparum. The protocol:
(§1) The in vitro activities of quinoline methanols against P. falciparum strains W2, D6, TM91C235, and TM90C2A were evaluated using the traditional labeled hypoxanthine assay of Desjardins et al as modified by Milhous et al. These four P. falciparum strains were selected since they have various levels of resistance to conventional anti-malarials.

In data set [1] the test system is P. falciparum strain TM91C235. Description: labeled hypoxanthine susceptibility assay, P. falciparum TM91C235. The data set is classed as cell-based, Plasmodium falciparum. Conditions: Plasmodium falciparum. As for the experimental part: as §1
For a further data set, the target named is T1, A1 receptor (Homo sapiens, UniProt P30542).
T1 construct: Caliper Biosciences (contract screen)
T1 sequence (P30542 1-326): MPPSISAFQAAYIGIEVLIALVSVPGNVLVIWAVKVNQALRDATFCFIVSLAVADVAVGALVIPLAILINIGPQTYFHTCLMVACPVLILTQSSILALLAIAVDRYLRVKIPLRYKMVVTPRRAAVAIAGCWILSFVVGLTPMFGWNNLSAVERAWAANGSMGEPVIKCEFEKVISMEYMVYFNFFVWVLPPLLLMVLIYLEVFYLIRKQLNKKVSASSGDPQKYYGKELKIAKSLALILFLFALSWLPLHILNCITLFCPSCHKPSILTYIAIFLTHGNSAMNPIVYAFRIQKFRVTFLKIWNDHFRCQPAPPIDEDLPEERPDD
Description: inhibition of the A1 receptor at 200 nM. The data set is classed as binding. To be noted: duplicate. The protocol:
(§2) General cytotoxicity was assessed by first determining LC50 's against a rodent macrophage (RAW) cell line using the 3-(4,5-dimethylthiazole-2-yl)-2,5-diphenyltetrazolium bromide (MTT) assay as described in one of our earlier studies. This screen was conducted to identify compounds that may require de-selection due to generalized toxicity. […] In vitro neurocytotoxicity was assessed by determining LC50s against primary mouse neurons using the MTT assay as described previously. Inhibition of the A2A and A1 receptors was determined at 200 nM in duplicate by Caliper Biosciences (Hanover, Maryland).

A further data set concerns the target T2, A2A receptor (Homo sapiens, UniProt P29274).
T2 construct: Caliper Biosciences (contract screen)
The data set is described as follows: inhibition of the A2A receptor at 200 nM. The data set is classed as binding. Conditions: 200 nM, duplicate; read-out: % A2A inhibition at 200 nM. As for the experimental part:
as §2

Data set [2] has as its system rodent macrophage (RAW) cell line. The data set is described as follows: cells. Conditions: Mus musculus, Macrophage, read-out: Macrophage IC50.
Another data set deals with T3, CYP450 3A4 (Homo sapiens, UniProt P08684).
T3 construct: purchased BD Gentest (Franklin Lakes, NJ)
The data set is described as follows: CYP450 inhibition kit (drug-drug interaction), 3A4. The data set is classed as biochemical. As for the experimental part:
(§3) Low IC50s against specific cytochrome P450 isoforms may indicate the potential for a harmful drug interaction to occur in vivo with substrates of that isoform. A lack of metabolic stability in vitro may indicate potential metabolic instability in vivo, and, therefore, a shorter half-life. Drug interaction potential was evaluated in vitro using BD Gentest (Franklin Lakes, NJ) CYP450 inhibition kits as recommended by the manufacturer. Metabolic stability assessments were conducted using in vitro liver microsomes. […] The reaction is started with the addition of 1 U/mL glucose-6-phosphate dehydrogenase G6PD. The mixture is incubated on a shaking platform at 37°C, and aliquots are taken and quenched with the addition of an equal volume of cold acetonitrile at 0, 10, 20, 30, and 60 min. Samples are centrifuged at 3700 rpm for […] at 20°C to remove debris. Sample quantification is carried out by LC/MS, and metabolic half-life is calculated by log plots of the total ion chromatograph area remaining.

In another data set the target is T4, CYP450 2D6 (Homo sapiens, UniProt P10635).
T4 construct: purchased BD Gentest (Franklin Lakes, NJ)
The data set is described as follows: CYP450 inhibition kit (drug-drug interaction), 2D6. In kind it is biochemical. The protocol:
as §3

Data set [3] can be described thus: in vitro. Conditions: dog, MDCK-MDR1, pH 7.4. As for the experimental part:
For this reason, the apparent permeability of selected compounds across MDR1-transfected MDCK cell monolayers was determined. This assay is an in vitro surrogate of the blood-brain barrier.
Permeability was determined by Absorption Systems (Exton, PA). MDR1-MDCK cell monolayers were grown to confluence on collagen-coated, microporous, polycarbonate membranes in 12-well Costar Transwell plates. […] The permeability assay buffer was Hanks Balanced Salt Solution containing 10 mM HEPES and 15 mM glucose at a pH of 7.4. A known p-glycoprotein inhibitor cyclosporin A (CSA) was also added to the assay buffer at 10 μM. Bovine serum albumin (1%) was added to the receiver well. The dosing solution concentrations of the test compounds were 5.0 μM in the assay buffer. All cell monolayers were first pre-incubated for 30 minutes with assay buffer. After 30 minutes, the buffer was removed, replaced with fresh buffer, and time was recorded as 0. […] Cell monolayers were dosed on the apical side (A-to-B) or basolateral side (B-to-A) and incubated at 37°C with 5% CO2 in a humidified incubator. After 2 hours, aliquots were taken from the receiver chambers. Samples were taken from the donor chamber at 0 and 2 hours. Each determination was performed in duplicate. The lucifer yellow flux was also measured for each monolayer to ensure no damage was inflicted to the cell monolayers during the flux period. All samples were assayed by LC/MS/MS using electrospray ionization.
Apparent permeability in the apical (A-B direction), PappA-B, and percent recovery are reported. Apparent permeability is a measure of the rate of transport across the cell monolayer. Percent recovery refers to the amount of compound recoverable at the end of the assay. Low recovery may indicate non-specific binding to assay plates, instability or accumulation in the cell pellet.
The apparent permeability, Papp, and percent recovery were calculated as follows:
Papp = (dCr/dt) × Vr/(A × C0) (1)
Percent Recovery = 100 × ((Vr × Cr^final) + (Vd × Cd^final))/(Vd × […]) (2)

A short description of data set [4]: in vitro. Conditions: mouse.
Setting [5] is: D6, read-out: IC90 Pf D6, P. falciparum D6, mefloquine: historical mean +/- SD (n).
Where [6] appears, read: D6, read-out: PF D6 IC90, P. falciparum D6.

Converted amounts (≈) assume the structure as drawn. Read-outs that look alike come from different tables or passages of the source.

T4 sequence (P10635 whole entry): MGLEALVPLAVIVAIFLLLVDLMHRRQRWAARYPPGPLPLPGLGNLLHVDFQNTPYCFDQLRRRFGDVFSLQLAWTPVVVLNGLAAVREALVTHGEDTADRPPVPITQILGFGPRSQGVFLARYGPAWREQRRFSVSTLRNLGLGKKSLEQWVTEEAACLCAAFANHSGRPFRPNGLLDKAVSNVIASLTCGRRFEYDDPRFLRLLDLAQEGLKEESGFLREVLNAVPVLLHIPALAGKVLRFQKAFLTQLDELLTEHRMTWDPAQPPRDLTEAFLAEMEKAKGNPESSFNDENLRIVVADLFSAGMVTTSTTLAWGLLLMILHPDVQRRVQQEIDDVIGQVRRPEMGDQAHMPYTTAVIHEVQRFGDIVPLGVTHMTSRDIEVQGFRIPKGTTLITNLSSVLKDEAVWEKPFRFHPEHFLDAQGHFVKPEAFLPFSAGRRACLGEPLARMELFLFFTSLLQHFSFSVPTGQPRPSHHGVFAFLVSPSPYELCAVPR
T3 sequence (P08684 whole entry): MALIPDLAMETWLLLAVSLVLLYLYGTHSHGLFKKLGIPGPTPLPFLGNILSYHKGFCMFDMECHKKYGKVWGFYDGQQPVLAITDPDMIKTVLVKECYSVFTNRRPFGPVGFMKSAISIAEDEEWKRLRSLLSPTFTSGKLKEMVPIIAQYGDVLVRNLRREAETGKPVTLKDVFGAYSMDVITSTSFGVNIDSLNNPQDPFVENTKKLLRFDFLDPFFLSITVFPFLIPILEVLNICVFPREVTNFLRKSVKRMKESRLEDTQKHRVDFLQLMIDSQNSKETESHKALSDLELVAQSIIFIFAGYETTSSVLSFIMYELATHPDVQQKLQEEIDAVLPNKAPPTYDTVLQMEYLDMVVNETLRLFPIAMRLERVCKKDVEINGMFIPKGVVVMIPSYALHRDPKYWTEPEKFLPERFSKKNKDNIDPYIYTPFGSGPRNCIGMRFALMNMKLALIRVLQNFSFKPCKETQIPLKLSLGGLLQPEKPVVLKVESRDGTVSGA
T2 sequence (P29274 whole entry): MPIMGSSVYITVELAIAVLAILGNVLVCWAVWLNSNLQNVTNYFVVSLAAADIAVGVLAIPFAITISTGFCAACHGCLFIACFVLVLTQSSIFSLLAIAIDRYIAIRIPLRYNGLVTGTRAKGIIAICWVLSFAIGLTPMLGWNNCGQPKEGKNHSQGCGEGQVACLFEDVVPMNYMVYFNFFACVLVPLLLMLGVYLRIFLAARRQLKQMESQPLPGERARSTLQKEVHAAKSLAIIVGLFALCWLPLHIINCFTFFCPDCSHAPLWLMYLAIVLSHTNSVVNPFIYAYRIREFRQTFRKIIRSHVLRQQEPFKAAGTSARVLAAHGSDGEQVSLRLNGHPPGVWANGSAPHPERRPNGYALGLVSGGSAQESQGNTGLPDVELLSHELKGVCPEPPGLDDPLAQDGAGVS

What is called IC90 is the concentration needed for an effect of 90%. Usually inhibition stands for how much of the control response was suppressed. As usually defined, the IC50 is the concentration that gives 50% inhibition. Take `CNCC(O)c1cc(C(F)(F)F)nc2c(C(F)(F)F)cccc12` (stereo not drawn) [WR308245]: the IC90 in the data set with P. falciparum strain D6 (setting [5]) came out at 0.045 µg/mL (≈ 0.133 µM); in the data set with P. falciparum strain D6 (setting [6]), 0.0452 µg/mL (≈ 0.134 µM); in data set [1] (read-out: IC90 Pf C235) it was 0.058 µg/mL (≈ 0.171 µM); in [1] (read-out: PF C235 IC90), 0.0576 µg/mL (≈ 0.17 µM). Also, the inhibition at 0.2 µM at A1 receptor and at A2A receptor was 0% in each case. Besides, the IC50 worked out at 40.4 µM in [2], 26 µM at CYP450 3A4 and 7.4 µM on CYP450 2D6.

The Papp A→B is how fast a substance crosses the layer from the apical side. Low readings indicate slow passage, high ones fast passage. With `CC(C)NCC(O)c1cc(C(F)(F)F)nc2c(C(F)(F)F)cccc12` (stereo not drawn) [WR308257], the IC90 in the data set on P. falciparum strain D6 (setting [5]) was found to be 0.023 µg/mL (≈ 0.0628 µM); in the data set with P. falciparum strain D6 (setting [6]) it was 0.0232 µg/mL (≈ 0.0634 µM); in data set [1] (read-out: IC90 Pf C235) it was 0.023 µg/mL (≈ 0.0628 µM); in [1] (read-out: PF C235 IC90), 0.0234 µg/mL (≈ 0.0638 µM). The inhibition at 0.2 µM against A1 receptor was determined as 79%; on A2A receptor, 17%. The IC50 in data set [2] was 14.2 µM; on CYP450 3A4, more than 40 µM; against CYP450 2D6 it was 1.9 µM. Besides, the Papp A→B at 2 h, 5 μM in the data set “in vitro [3]” is 25 ×10⁻⁶ cm/s.

Consider `CSCCCNCC(O)c1cc(C(F)(F)F)nc2c(C(F)(F)F)cccc12` (stereo not drawn) [WR308278], for which the IC90 worked out at 0.036 µg/mL (≈ 0.0873 µM) in the data set on P. falciparum strain D6 (setting [5]), 0.0363 µg/mL (≈ 0.0881 µM) with P. falciparum strain D6 (setting [6]), 0.039 µg/mL (≈ 0.0946 µM) in data set [1] (read-out: IC90 Pf C235) and 0.0393 µg/mL (≈ 0.0953 µM) in [1] (read-out: PF C235 IC90). The inhibition at 0.2 µM at A1 receptor was 9.4%; on A2A receptor it was 1%. Moreover, the IC50 in [2] was found to be 20.9 µM; against CYP450 3A4, 16 µM; on CYP450 2D6 it was 1.4 µM.

For `OC(CNCCNCc1ccccc1)c1cc(C(F)(F)F)nc2c(C(F)(F)F)cccc12` (stereo not drawn) [WR308396], the “IC90 Pf D6” value in the data set with P. falciparum strain D6 (P. falciparum D6, mefloquine: historical mean +/- SD (n)) was 0.029 µg/mL (≈ 0.0634 µM). Further, the IC90 is 0.03 µg/mL (≈ 0.0656 µM) with P. falciparum strain D6 (setting [5]), 0.0293 µg/mL (≈ 0.0639 µM) with P. falciparum strain D6 (setting [6]), 0.04 µg/mL (≈ 0.0874 µM) in [1] (read-out: IC90 Pf C235) and 0.0401 µg/mL (≈ 0.0877 µM) in data set [1] (read-out: PF C235 IC90). In addition, the inhibition at 0.2 µM at A1 receptor came out at 2.9%; on A2A receptor it was 0%. The CC50 in “in vitro [4]” stood at 8.28 µg/mL (≈ 18.1 µM). In addition, the IC50 was 18.1 µM in data set [2], 3.3 µM against CYP450 3A4 and 0.7 µM on CYP450 2D6.
